From patent US8710059B2, “N-phenyl-(homo)piperazinyl-benzenesulfonyl or benzenesulfonamide compounds suitable for treating disorders that respond to the modulation of the serotonin 5-HT6 receptor” (Abbott Laboratories, priority 2010, dated 2014)
pKd: −log10 of the molar value.

Biological target: T1, dopamine D2 receptor (Homo sapiens, UniProt P14416)
T1 construct: expressed in transfected cells
Assay: Dopamine D2 receptor binding assay (displacement of [125I]-iodospiperone)
Conditions: saturation binding experiments, HEK293 D2 membranes
Protocol: 1. […] The pellets were stored at −80° C. until use. […] (Beckman Ultrazentrifuge XL 80). […] 2. Receptor Binding Experiments
b) Dopamine D2 Receptor Binding Assay
Non-specific binding was defined with 1 μM haloperidol.

T1 sequence (P14416 whole entry): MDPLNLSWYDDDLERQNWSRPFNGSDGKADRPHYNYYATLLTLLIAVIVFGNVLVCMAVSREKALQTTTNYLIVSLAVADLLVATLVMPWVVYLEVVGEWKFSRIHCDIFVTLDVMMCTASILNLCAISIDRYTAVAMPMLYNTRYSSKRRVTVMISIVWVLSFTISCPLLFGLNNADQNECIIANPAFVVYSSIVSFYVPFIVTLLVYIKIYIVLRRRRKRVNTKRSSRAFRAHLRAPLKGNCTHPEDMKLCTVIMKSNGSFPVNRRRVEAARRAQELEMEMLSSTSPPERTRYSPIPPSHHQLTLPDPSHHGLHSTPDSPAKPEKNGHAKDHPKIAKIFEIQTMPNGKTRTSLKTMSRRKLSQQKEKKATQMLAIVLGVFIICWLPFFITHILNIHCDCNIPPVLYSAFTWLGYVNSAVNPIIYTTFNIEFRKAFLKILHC

- pKd: 9.66
Substance: iodospiperone [[^125I]-iodospiperone]
